The structures appear in SMILES notation.

The data set has as its system Caco-2 cells. In words: Caco-2 permeability (bi-directional; pH 7.4/pH 7.4). In kind it is in vitro ADME, human. As to conditions: Caco-2, 10 μM, 120 minutes. The procedure: Caco-2 cells are used as an in vitro model of the human intestinal epithelium and permit assessment of the intestinal permeability of potential drugs. Test compound is added to either the apical or basolateral side of a confluent monolayer of Caco-2 cells and permeability is measured by monitoring the appearance of the test compound on the opposite side of the membrane using LC-MS/MS. Apparent permeability (Papp) coefficients, efflux ratio for the test compound and recovery values were determined.
To measure the permeability of test compound in the apical to basolateral (A-B) and basolateral to apical (B-A) direction across Caco-2 cells.
Caco-2 cells obtained from the ATCC are used between passage numbers 40-60. Cells are seeded on to Millipore Multiscreen Caco-2 plates at 1×10^5 cells/cm^2. They are cultured for 20 days in DMEM and media is changed every two or three days. On day 20 the permeability study is performed.
On day 20, the monolayers are prepared by rinsing both basolateral and apical surfaces twice with HBSS at 37° C. Cells are then incubated with HBSS in both apical and basolateral compartments for 40 min to stabilize physiological parameters. HBSS is then removed from the apical compartment and replaced with test compound dosing solutions. […] The fluorescent integrity marker lucifer yellow is also included in the dosing solution. Analytical standards are made from dosing solutions. The apical compartment inserts are then placed into ‘companion’ plates containing fresh HBSS. For basolateral to apical (B-A) permeability determination the experiment is initiated by replacing buffer in the inserts then placing them in companion plates containing dosing solutions. At 120 minutes the companion plate is removed and apical and basolateral samples diluted for analysis by LC-MS/MS. Test compound permeability was assessed in duplicate. On each plate, compounds of known permeability characteristics were run as controls.
Test and control compounds were quantified by LC-MS/MS cassette analysis using a 5-point calibration with appropriate dilution of the samples. Cyprotex generic analytical conditions were used. The starting concentration (C0) and experimental recovery were calculated from both apical and basolateral compartment concentrations.
The integrity of the monolayers throughout the experiment was checked by monitoring lucifer yellow permeation using fluorimetric analysis. Lucifer yellow permeation is low if monolayers have not been damaged. […] If lucifer yellow Papp values are above QC limits in both replicate wells for a test compound, the compound was re-tested.
Data Analysis: The permeability coefficient for each compound (Papp) is calculated from the following equation:
[formula] wherein dQ/dt is the rate of permeation of the drug across the cells, C0 is the donor compartment concentration at time zero and A is the area of the cell monolayer. C0 is obtained from analysis of donor and receiver compartments at the end of the incubation period. It is assumed that all of the test compound measured after 120 minutes incubation was initially present in the donor compartment at 0 minutes. An efflux ratio (ER) is derived as follows:
Talinolol (a known P-gp substrate) is also included as a control compound to assess whether functional P-gp is present in the Caco-2 cell monolayer.
(Passage across Caco-2 layers is used to estimate intestinal permeability.)
Consider `COCCOCCOCCOCCOCCN1CCN(Cc2ccc(C(=O)Nc3ccc(C)c(Nc4nccc(-c5cccnc5)n4)c3)cc2)CC1` [mPEG5-N′-Imatinib], for which the Permeability (apparent permeability, Papp (A-B)) is 1 ± 0.2 ×10⁻⁶ cm/s.

Regarding `COCCOCCOCCOCCOCCOCCOCCOCCOCCN1CCN(Cc2ccc(C(=O)Nc3ccc(C)c(Nc4nccc(-c5cccnc5)n4)c3)cc2)CC1` [mPEG9-N′-Imatinib], the Permeability (apparent permeability, Papp (A-B)) worked out at 0.05 ± 0.02 ×10⁻⁶ cm/s. As to `COCCOCCOCCOCCOCCOCCOCCOCCOCCNCc1ccc(C(=O)Nc2ccc(C)c(Nc3nccc(-c4cccnc4)n3)c2)cc1` [mPEG9-N-Imatinib], the Permeability (apparent permeability, Papp (A-B)) worked out at 0.01 ± 0.004 ×10⁻⁶ cm/s. As to `COCCOCCOCCOCCOCCOCCOCCN1CCN(Cc2ccc(C(=O)Nc3ccc(C)c(Nc4nccc(-c5cccnc5)n4)c3)cc2)CC1` [mPEG7-N′-Imatinib], the Permeability (apparent permeability, Papp (A-B)) turned out to be 0.3 ± 0.01 ×10⁻⁶ cm/s. For the molecule `COCCOCCOCCOCCOCCNCc1ccc(C(=O)Nc2ccc(C)c(Nc3nccc(-c4cccnc4)n3)c2)cc1` [mPEG5-N-Imatinib], the Permeability (apparent permeability, Papp (A-B)) came to 0.05 ± 0.02 ×10⁻⁶ cm/s. Regarding `COCCOCCOCCN1CCN(Cc2ccc(C(=O)Nc3ccc(C)c(Nc4nccc(-c5cccnc5)n4)c3)cc2)CC1` [mPEG3-N′-Imatinib], the Permeability (apparent permeability, Papp (A-B)) worked out at 4 ± 0.8 ×10⁻⁶ cm/s. `COCCOCCOCCOCCOCCOCCOCCNCc1ccc(C(=O)Nc2ccc(C)c(Nc3nccc(-c4cccnc4)n3)c2)cc1`: the Permeability (apparent permeability, Papp (A-B)) stood at 0.04 ± 0.01 ×10⁻⁶ cm/s. `COCCOCCOCCNCc1ccc(C(=O)Nc2ccc(C)c(Nc3nccc(-c4cccnc4)n3)c2)cc1` [mPEG3-N-Imatinib]: the Permeability (apparent permeability, Papp (A-B)) came out at 0.6 ± 0.07 ×10⁻⁶ cm/s.
